pIC50: −log10 of the molar value. Read-outs that look alike come from different tables or passages of the source.
Legend:
[1] = tested on: p-PI3K (PI3K phosphorylation); test: Western blot of p-PI3K normalized to β-actin; type: cell-based, mouse; conditions: 15 min; for activity at 0.01 µM / activity at 0.1 µM / activity at 1 µM / activity at 10 µM: Mus musculus, 0.25 h, read-out: p-PI3K level, percent of control; for Increase in level of PI3K phosphorylation: all concentrations tested 0.01–10 µM
Protocol: To directly assess the activation of the PI3K enzyme, Western blot analysis was carried out on C2C12 cell whole cell lysates after a 15-min stimulation with 0.01–10 µM SY-LB-35 or SY-LB-57.
(§1) C2C12 cells (3 mL) were seeded into 35 mm dishes at 7.5 × 10^4 cells/mL in complete growth medium, incubated to reach 80% confluence and serum-starved for 16–18 h. […] Thereafter, the cultures were washed with ice-cold 1X TBS for 2 min. Lysis Buffer (Cell Signaling Technology, Danvers, MA, USA) supplemented with 1 mM PMSF (phenylmethylsulphonyl fluoride) was added to the cultures and whole cell lysates were prepared.
(§2) Laemmli sample buffer (4X) was added to the whole cell lysates (20 µg) to a final concentration of 1X and heated at 100 °C for 5 min. The samples were immediately cooled on ice for 5 min and centrifuged at 9500 rpm for 2 min at RT. The samples and the Precision Plus Protein Standard (5 µL; Bio-Rad, Hercules, CA, USA) were loaded on 12% SDS polyacrylamide gels. Protein was separated using the Bio-Rad Mini Protean II Gel Electrophoresis System at 135 V. Meanwhile, 0.2 µm nitrocellulose membranes were pre-incubated in cold 1X Transfer Buffer (10 mM Tris/2.5 mM glycine/20% methanol) for at least 30 min. Next, the separated proteins were transferred at 100 V onto the pre-equilibrated nitrocellulose membranes for 1 h in Transfer Buffer, followed by blocking in 5% BSA/0.1% Tween 20/1X TBS for 30 min. The membranes were incubated overnight at 4 °C with the desired primary rabbit monoclonal antibody (p-Smad1/5(S463/465)/9(S465/467), Smad1 (D5907) XP®, p-Akt (Ser473) (D9E) XP®, or Akt (pan) (C67E7), p-SAPK/JNK (Thr183/Tyr185), SAPK/JNK, β-actin (Cell Signaling Technologies, Danvers, MA, USA)) or rabbit polyclonal antibody (phospho-PI3 Kinase p85 (Tyr458)/p55 (Tyr199) antibody (Cell Signaling Technologies, Danvers, MA, USA), p-p38 MAPK, p38 MAPK, p-ERK1, ERK1/2) (Abclonal, Woburn, MA, USA)) in Antibody Dilution Buffer (1% BSA/0.1% Tween 20/1X TBS) and then washed with 1X TBST (0.1% Tween 20/1X TBS) three times for 15 min. HRP-conjugated Goat Anti-Rabbit IgG secondary antibody (Santa Cruz Biotechnology, Inc., Dallas, TX, USA) in Antibody Dilution Buffer was added to the membranes for 1 h at RT followed by three 15-min washes with 1X TBST. Finally, the blots were developed using SuperSignal ™ West Femto HRP Substrate solutions (Thermo Scientific, Rockford, IL, USA) and analysed using the Omega Lum™ G Imaging System (San Francisco, CA, USA). Quantification of chemiluminescent signals was carried out using ImageJ (Image Processing and Analysis in Java 1.8.0_112).

[2] = tested on: C2C12 cells; test: Live cell count (acridine orange/propidium iodide); type: cell-based, mouse; conditions: 24 h; for Average increase in number of cells compared to control: average over 0.01–10 µM
Protocol: For the concentrations tested, SY-LB-35 increased the number of cells by an average of approximately 40% (Fig. 4A) and SY-LB-57 enhanced cell numbers to an average increase of 70% compared to the control (Fig. 4B). […] Moreover, both novel compounds induce a substantial proliferative effect in C2C12 cells.
C2C12 mouse myoblast cells (ATCC®, Manassas, VA, USA) were maintained in complete growth media (DMEM/10% FBS/1X Penicillin/Streptomycin/Glutamine solution (PSG)) at 37 °C in 5% CO2. DMEM media (Dulbecco’s Modified Eagle’s Medium with high glucose and L-glutamine and without sodium pyruvate) was from Caisson Labs (Smithfield, UT, USA). FBS was from Atlanta Biologicals (Flowery Branch, GA, USA). To determine the cell concentration, 18 µL cell suspension was mixed with 2 µL Acridine orange/Propidium iodide stain (Logos Biosystems, Annandale, VA, USA). Next, the cell concentration and percent viability were determined from 10 µL stained cells using the Luna-FL™ Dual Fluorescence Cell Counter from Logos Biosystems. For cell counts following treatment with SY-LB-35 or SY-LB-57, C2C12 cells (500 µL) were seeded into 24-well plates at 1 × 10^5 cells/mL, grown to 80% confluency, serum-starved for 16–18 h using Serum-Starvation Medium (SS medium: DMEM/1X Penicillin/Streptomycin solution (PS)) and treated for 24 h with the novel compounds. The treated cells were then collected by trypsinization, pelleted at 2000 rpm for 3 min at RT, resuspended and counted.

[3] = tested on: p-Akt (Akt phosphorylation); test: Western blot of p-Akt normalized to total Akt; type: cell-based; conditions: Mus musculus, 0.25 h, 15 min, read-out: p-Akt level, percent of control
Protocol: To ascertain whether these novel indolyl-benzimidazole compounds can also activate non-canonical BMP-related pathways, stimulation of the PI3K/Akt pathway was assessed by first monitoring changes in the level of p-Akt in response to SY-LB-35 and SY-LB-57.
as §1, §2

[4] = tested on: C2C12 cells; test: RealTime-Glo MT cell viability assay; type: cell-based, mouse; conditions: for Increase in cell viability over control / Decrease in cell viability compared with control: 24 h; for pIC50: non-linear regression, read-out: IC50 (concentration at which cell viability is reduced by 50%)
Protocol: To first determine how these novel compounds effect the health of C2C12 cells and to establish the range of subtoxic concentrations for future studies, cell viability assays were carried out. Serum-starved C2C12 cells were exposed to increasing concentrations (0.01–1000 µM) of SY-LB-35 and SY-LB-57 for 24 h. Exposure to Triton X-100 (125 µM) is toxic to cells and was used as a negative control for cell viability. Following the 24-h exposure period, the MT Cell viability substrate was added to the cultures. Only viable cells can reduce the substrate and, thereby, generate a luminescent signal. Any decrease in luminescence was considered an indication of cell death or toxicity.
C2C12 cells (100 µL) were seeded in a 96-well plate at 5 × 10^5 cells/mL and incubated overnight in complete growth media to achieve 80% confluency followed by serum-starvation for 16–18 h.
Next, reagents from the RealTime-Glo™ MT Cell Viability Assay Kit (Promega, Madison, WI, USA) were diluted in SS medium and used according to manufacturer’s protocol. Cellular luminescence was measured using the FilterMax F5 Multi-mode Microplate Reader (Molecular Devices, San Jose, CA, USA). Data from three independent experiments with individual experiments carried out in triplicate was determined and reported as a percentage of control.

| SMILES | activity at 0.01 µM [1] | activity at 0.1 µM [1] | activity at 1 µM [1] | activity at 10 µM [1] | Increase in level of PI3K phosphorylation [1] | Cell number ([2]; 0.01 µM) | Cell number ([2]; 0.1 µM) | Cell number ([2]; 1 µM) | Cell number ([2]; 10 µM) | Average increase in number of cells compared to control [2] | activity at 0.01 µM [3] | activity at 10 µM [3] | pIC50 ([4]; C2C12, 24 h) | pIC50 ([4]; Mus musculus, C2C12, 24 h) | also measured |
| --- | --- | --- | --- | --- | --- | --- | --- | --- | --- | --- | --- | --- | --- | --- | --- |
| Oc1ccc2[nH]c(-c3nc4ccccc4[nH]3)cc2c1 [SY-LB-35] | 431% | 434% | 492% | 484% | > 300 % increase | 6.8 × 10^5 cells | 6.6 × 10^5 cells | 6.8 × 10^5 cells | 6.4 × 10^5 cells | approximately 40% | 945% | 766% | 3.40 | 3.40 | activity at 0.1 µM ([3]; 0.1 µM): 826%; activity at 1 µM ([3]; 1 µM): 887%; Increase in cell viability over control ([4]; 0.01 µM): 150 % over control; Increase in cell viability over control ([4]; 0.1 µM): 150 % over control; Increase in cell viability over control ([4]; 1 µM): 120 % over control; Decrease in cell viability compared with control ([4]; 100 µM): 30 % decrease; Decrease in cell viability compared with control ([4]; 1 mM): 80 % decrease |
| COc1ccc2[nH]c(-c3nc4ccccc4[nH]3)cc2c1 [SY-LB-57] | 443% | 404% | 471% | 451% | > 300 % increase | 7.4 × 10^5 cells | 6.5 × 10^5 cells | 7.2 × 10^5 cells | 6.0 × 10^5 cells | 70% | 827% | 995% | 3.09 | 3.09 | Non-toxic / safe concentrations ([4]; C2C12, 24 h): ≤ 10 µM |
